Measurements as given in the supplement of paper PMC10307832.

Tests used:
Experiment in all cases: relative viability (nuclei count vs DMSO), 5 days (fraction); higher = more cells survive
[1] = tested on: NCI-H838
In short: (§1)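 Lung cancer cell lines in 1536-well plates were dosed by pin tool the day after seeding, either with one drug alone or with a fixed anchor-drug dose plus five library-drug doses (not always all listed) in √10 steps. After 5 days, cells were fixed and their nuclei stained in one step (final 0.05% Triton X-100, 1% formaldehyde, 1 ug/ml Hoechst), then counted on 4× images. Relative viability is the nuclei count in treated wells divided by that in vehicle wells. Values are medians of duplicate plates.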

[2] = tested on: NCI-H23
In short: as §1

[3] = tested on: NCI-H1993
In short: as §1

[4] = tested on: SK-LU-1
In short: as §1

[5] = tested on: NCI-H1793
In short: as §1

[6] = tested on: NCI-H2126
In short: as §1

[7] = tested on: NCI-H2405
In short: as §1

[8] = tested on: NCI-H2023
In short: as §1

[9] = tested on: NCI-H2228
In short: as §1

[10] = tested on: ChaGo-K-1
In short: as §1

[11] = tested on: A-427
In short: as §1

[12] = tested on: ABC-1
In short: as §1

[13] = tested on: UMC-11
In short: as §1

[14] = tested on: NCI-H1944
In short: as §1

[15] = tested on: NCI-H2009
In short: as §1

[16] = tested on: COR-L23
In short: as §1

[17] = tested on: LC-2-ad
In short: as §1

[18] = tested on: EMC-BAC-2
In short: as §1

[19] = tested on: HCC-15
In short: as §1

[20] = tested on: NCI-H1734
In short: as §1

[21] = tested on: HCC-366
In short: as §1

[22] = tested on: HCC-78
In short: as §1

[23] = tested on: HARA
In short: as §1

With `NC(=O)Nc1cc(-c2cccc(F)c2)sc1C(=O)N[C@H]1CCCNC1` [AZD7762] + O=C(c1cc(Cc2n[nH]c(=O)c3ccccc23)ccc1F)N1CCN(C(=O)C2CC2)CC1 [Olaparib] (partner 8 µM) the relative viability ([1]; first compound 0.01 µM) was 0.86, the relative viability ([1]; first compound 0.03162 µM) was 0.774 and the relative viability ([1]; first compound 0.1 µM) was 0.744. It also gave a relative viability ([1]; first compound 0.3162 µM) of 0.493, a relative viability ([1]; first compound 1 µM) of 0.169 and a relative viability ([2]; first compound 0.01 µM) of 0.311. The relative viability ([2]; first compound 0.03162 µM) was 0.287, the relative viability ([2]; first compound 0.1 µM) was 0.255 and the relative viability ([2]; first compound 0.3162 µM) was 0.222. It also gave a relative viability ([2]; first compound 1 µM) of 0.168, a relative viability ([3]; first compound 0.01 µM) of 1.18 and a relative viability ([3]; first compound 0.03162 µM) of 1.03. For the same compound, the relative viability ([3]; first compound 0.1 µM) was 1.12, the relative viability ([3]; first compound 0.3162 µM) was 1.42 and the relative viability ([3]; first compound 1 µM) was 0.922. It also gave a relative viability ([4]; first compound 0.01 µM) of 0.477, a relative viability ([4]; first compound 0.03162 µM) of 0.389 and a relative viability ([4]; first compound 0.1 µM) of 0.306. It also gave a relative viability ([4]; first compound 0.3162 µM) of 0.244, a relative viability ([4]; first compound 1 µM) of 0.186 and a relative viability ([5]; first compound 0.01 µM) of 0.886. The relative viability ([5]; first compound 0.03162 µM) was 0.909, the relative viability ([5]; first compound 0.1 µM) was 0.917 and the relative viability ([5]; first compound 0.3162 µM) was 0.997. The relative viability ([5]; first compound 1 µM) was 0.248, the relative viability ([6]; first compound 0.01 µM) was 0.948 and the relative viability ([6]; first compound 0.03162 µM) was 0.982. It also gave a relative viability ([6]; first compound 0.1 µM) of 0.966, a relative viability ([6]; first compound 0.3162 µM) of 0.941 and a relative viability ([6]; first compound 1 µM) of 0.885. For the same compound, the relative viability ([7]; first compound 0.01 µM) was 0.889, the relative viability ([7]; first compound 0.03162 µM) was 0.911 and the relative viability ([7]; first compound 0.1 µM) was 0.837. For the same compound, the relative viability ([7]; first compound 0.3162 µM) was 0.816, the relative viability ([7]; first compound 1 µM) was 0.294 and the relative viability ([8]; first compound 0.01 µM) was 0.463. It also gave a relative viability ([8]; first compound 0.03162 µM) of 0.323, a relative viability ([8]; first compound 0.1 µM) of 0.171 and a relative viability ([8]; first compound 0.3162 µM) of 0.111. The relative viability ([8]; first compound 1 µM) was 0.0963, the relative viability ([9]; first compound 0.01 µM) was 0.659 and the relative viability ([9]; first compound 0.03162 µM) was 0.778. For the same compound, the relative viability ([9]; first compound 0.1 µM) was 0.637, the relative viability ([9]; first compound 0.3162 µM) was 0.311 and the relative viability ([9]; first compound 1 µM) was 0.193. It also gave a relative viability ([10]; first compound 0.01 µM) of 0.394, a relative viability ([10]; first compound 0.03162 µM) of 0.425 and a relative viability ([10]; first compound 0.1 µM) of 0.423. The relative viability ([10]; first compound 0.3162 µM) was 0.415, the relative viability ([10]; first compound 1 µM) was 0.379 and the relative viability ([11]; first compound 0.01 µM) was 0.865. It also gave a relative viability ([11]; first compound 0.03162 µM) of 0.767, a relative viability ([11]; first compound 0.1 µM) of 0.78 and a relative viability ([11]; first compound 0.3162 µM) of 0.733. For the same compound, the relative viability ([11]; first compound 1 µM) was 0.379, the relative viability ([12]; first compound 0.01 µM) was 0.968 and the relative viability ([12]; first compound 0.03162 µM) was 0.857. For the same compound, the relative viability ([12]; first compound 0.1 µM) was 0.893, the relative viability ([12]; first compound 0.3162 µM) was 0.938 and the relative viability ([12]; first compound 1 µM) was 0.685. The relative viability ([13]; first compound 0.01 µM) was 0.819, the relative viability ([13]; first compound 0.03162 µM) was 0.342 and the relative viability ([13]; first compound 0.1 µM) was 0.277. For the same compound, the relative viability ([13]; first compound 0.3162 µM) was 0.256, the relative viability ([13]; first compound 1 µM) was 0.255 and the relative viability ([14]; first compound 0.01 µM) was 0.46. The relative viability ([14]; first compound 0.03162 µM) was 0.448, the relative viability ([14]; first compound 0.1 µM) was 0.504 and the relative viability ([14]; first compound 0.3162 µM) was 0.532. It also gave a relative viability ([14]; first compound 1 µM) of 0.446, a relative viability ([15]; first compound 0.01 µM) of 0.719 and a relative viability ([15]; first compound 0.03162 µM) of 0.726. The relative viability ([15]; first compound 0.1 µM) was 0.747, the relative viability ([15]; first compound 0.3162 µM) was 0.521 and the relative viability ([15]; first compound 1 µM) was 0.34. For the same compound, the relative viability ([16]; first compound 0.01 µM) was 0.405, the relative viability ([16]; first compound 0.03162 µM) was 0.248 and the relative viability ([16]; first compound 0.1 µM) was 0.215. For the same compound, the relative viability ([16]; first compound 0.3162 µM) was 0.166, the relative viability ([16]; first compound 1 µM) was 0.0843 and the relative viability ([17]; first compound 0.01 µM) was 0.818. For the same compound, the relative viability ([17]; first compound 0.03162 µM) was 0.772, the relative viability ([17]; first compound 0.1 µM) was 0.781 and the relative viability ([17]; first compound 0.3162 µM) was 0.703. For the same compound, the relative viability ([17]; first compound 1 µM) was 0.606, the relative viability ([18]; first compound 0.01 µM) was 0.612 and the relative viability ([18]; first compound 0.03162 µM) was 0.628. It also gave a relative viability ([18]; first compound 0.1 µM) of 0.626, a relative viability ([18]; first compound 0.3162 µM) of 0.64 and a relative viability ([18]; first compound 1 µM) of 0.547. The relative viability ([19]; first compound 0.01 µM) was 0.824, the relative viability ([19]; first compound 0.03162 µM) was 0.948 and the relative viability ([19]; first compound 0.1 µM) was 0.898. For the same compound, the relative viability ([19]; first compound 0.3162 µM) was 1.04, the relative viability ([19]; first compound 1 µM) was 0.983 and the relative viability ([20]; first compound 0.01 µM) was 0.746. For the same compound, the relative viability ([20]; first compound 0.03162 µM) was 0.663, the relative viability ([20]; first compound 0.1 µM) was 0.72 and the relative viability ([20]; first compound 0.3162 µM) was 0.491. The relative viability ([20]; first compound 1 µM) was 0.316, the relative viability ([21]; first compound 0.01 µM) was 0.364 and the relative viability ([21]; first compound 0.03162 µM) was 0.305. The relative viability ([21]; first compound 0.1 µM) was 0.278, the relative viability ([21]; first compound 0.3162 µM) was 0.157 and the relative viability ([21]; first compound 1 µM) was 0.0818. It also gave a relative viability ([22]; first compound 0.01 µM) of 0.86, a relative viability ([22]; first compound 0.03162 µM) of 1 and a relative viability ([22]; first compound 0.1 µM) of 0.775. It also gave a relative viability ([22]; first compound 0.3162 µM) of 0.85, a relative viability ([22]; first compound 1 µM) of 0.515 and a relative viability ([23]; first compound 0.01 µM) of 0.768. It also gave a relative viability ([23]; first compound 0.03162 µM) of 0.759, a relative viability ([23]; first compound 0.1 µM) of 0.507 and a relative viability ([23]; first compound 0.3162 µM) of 0.301. For the same compound, the relative viability ([23]; first compound 1 µM) was 0.229.
